Entries after “also recorded” stand apart in the source; their conditions may differ.
Assays:
EphB4 [1] = assay: EphB4 expression in HNSCC cell lines on EGFR inhibition (Western blot); type: cell-based, human
Method: Western blot of total cell lysates sequentially probed with EphB4 monoclonal antibody, stripped and reprobed with β-actin monoclonal antibody as described for FIG. 39C. B) Effect of the specific EGFR inhibitor AG1478 on EphB4 expression: Western blot of crude cell lysates of SCC15 treated with 0-1000 nM AG 1478 for 24 h in media supplemented with 10% FCS (left) or with […] AG 1478 for 4, 8, 12 or 24 h (right). Shown are membranes sequentially probed for EphB4 and β-actin. C) Effect of inhibition of EGFR signaling on EphB4 expression in SCC cell lines: Cells maintained in growth media containing 10% FCS were treated for 24 hr with 1 μM AG 1478, after which crude cell lysates were analyzed by Western blots of cell lysates sequentially probed with for EGFR, EphB4, ephrin B2 and β-actin antibodies. Specific signal for EGFR was detected at 170 kD and ephrin B2 at 37 kD in addition to EphB4 and β-actin as described in FIG. 1C. β-actin serves as loading and transfer control.

EphB4 [2] = assay: EphB4 expression in PC3 cells on EGFR / IGF-1R blockade (Western blot); type: cell-based, human; conditions: AG1478 1 nM 36 hours, MAB391 2 μg/ml overnight
Method: A) Western blot of PC3 cells treated with or without EGFR specific inhibitor AG1478 (1 nM) for 36 hours. […] The membrane was stripped and reprobed with β-actin, which was unaffected. B) Western Blot of triplicate samples of PC3 cells treated with or without IGFR-1 specific neutralizing antibody MAB391 (2 μg/ml; overnight). The membrane was sequentially probed with EphB4, IGFR-1 and β-actin antibodies.

SMILES: COc1cc2ncnc(Nc3cccc(Cl)c3)c2cc1OC [AG1478]
- total amount of EphB4 (EphB4 [1]; SCC-9, -12, -13 and -71): no effect
- total amount of EphB4 (EphB4 [1]; SCC-15 and SCC-25, 24 h, 1 µM): marked loss
- EphB4 level (EphB4 [2]): down-regulated; also recorded: Decreased EphB4 signal
